Structures are written as SMILES. In brackets after ≈: the same amount, converted by molar mass. Activity calls are given as the source filed them. No cut-off for these calls is given here.

The record followed here is ChEMBL document CHEMBL6177980 (J Med Chem, 2025).

A short description of data set [1]: Cmax in fasted Cynomolgus monkey at 11.6 mg/kg, po by LC-MS/MS analysis. To be noted: in vivo. The format is ADME, organism-based, Macaca fascicularis.
A short description of data set [2]: AUC (0 to t) in fasted Cynomolgus monkey at 11.6 mg/kg, po by LC-MS/MS analysis. Type of data set: ADME, organism-based, Macaca fascicularis. To be noted: in vivo.
Data set [3] is described as follows: Oral bioavailability in fasted Cynomolgus monkey administered orally by LC-MS/MS analysis. Type of data set: ADME, organism-based, Macaca fascicularis. To be noted: in vivo.
A short description of data set [4]: Aqueous solubility of compound. The format is physicochemical. To be noted: aqueous medium.
Data set [5] deals with Mammarenavirus choriomeningitidis. The experiment in a line: In vivo antiviral activity against LCMV infected in C57BL/6-Prf1tm1Sdz/J mouse assessed as improvement in platelet count at 1 to 5 mg/kg, po qd treated for 7 days. Type of data set: functional, organism-based. To be noted: dose 1-5 mg/kg, time 7.0 day.
The test system is the same in data set [6]. The experiment in a line: Antiviral activity against LCMV infected in C57BL/6-Prf1tm1Sdz/J mouse assessed as reduction in viral copy number in kidney treated orally once daily for 7 days by RT-qPCR analysis. The format is functional, organism-based. To be noted: dose 1-5 mg/kg, route po, time 7.0 day.
Data set [7] shares this test system. The experiment in a line: Antiviral activity against LCMV infected in C57BL/6-Prf1tm1Sdz/J mouse assessed as reduction in viral titer in kidney treated orally once daily for 7 days by RT-qPCR analysis. To be noted: dose 1-5 mg/kg, route po, time 7.0 day. The format is functional, organism-based.
Data set [8] is described as follows: Stability in C57BL/6J mouse plasma administered orally or intravenously. The format is ADME, cell-free. As to conditions: po.
A short description of data set [9]: Prodrug conversion in Sprague-Dawley rat plasma assessed as parent nucleoside metabolite formation administered orally or intravenously. The format is ADME, cell-free. As to conditions: po.
Data set [10] is described as follows: Prodrug conversion in Beagle dog plasma assessed as parent nucleoside metabolite formation administered orally or intravenously. Type of data set: ADME, cell-free, Canis lupus familiaris. To be noted: po.
The nature of data set [11]: Prodrug conversion in Sprague-Dawley rat liver microsomes assessed as parent nucleoside metabolite formation at 1 uM measured up to 60 mins in presence of NADPH/UDPGA by LC-MS/MS analysis. Type of data set: ADME, Microsome. To be noted: 1 h. (In general: Microsomes from liver hold many membrane-bound enzymes, among them those of drug oxidation.)
Data set [12] can be described thus: Prodrug conversion in Beagle dog plasma assessed as parent nucleoside metabolite formation at 1 uM measured up to 60 mins by LC-MS/MS analysis. Type of data set: ADME, cell-free, Canis lupus familiaris. To be noted: 1 h.
A short description of data set [13]: Prodrug conversion in C57BL/6J mouse assessed as Cmax of 4'-Fluorouridine metabolite at 6 mg/kg, po by LC-MS/MS analysis. As to conditions: in vivo. Type of data set: ADME, organism-based.
The nature of data set [14]: Prodrug conversion in Sprague-Dawley rat assessed as Cmax of 4'-Fluorouridine metabolite at 2 mg/kg, po by LC-MS/MS analysis. Type of data set: ADME, organism-based. As to conditions: in vivo.
Data set [15] is described as follows: Prodrug conversion in Sprague-Dawley rat assessed as AUC (0 to t) of 4'-Fluorouridine metabolite at 6 mg/kg/day, po treated for 7 days by LC-MS/MS analysis. The format is ADME, organism-based. As to conditions: in vivo, 168 h, time 7 day.
Data set [16] in a line: Prodrug conversion in Beagle dog assessed as AUC (0 to t) of 4'-Fluorouridine metabolite at 3 mg/kg/day, po treated for 7 days by LC-MS/MS analysis. The format is ADME, organism-based, Canis lupus familiaris. As to conditions: in vivo, 168 h, time 7 day.
Data set [17] is described as follows: Prodrug conversion in C57BL/6J mouse assessed as half life of 4'-Fluorouridine metabolite treated orally by LC-MS/MS analysis. To be noted: in vivo, po. Type of data set: ADME.
The nature of data set [18]: Prodrug conversion in Sprague-Dawley rat assessed as volume of distribution at steady state of 4'-Fluorouridine metabolite treated orally or intravenously by LC-MS/MS analysis. The format is ADME. To be noted: in vivo, po.
Data set [19] is described as follows: Prodrug conversion in Sprague-Dawley rat assessed as 4'-Fluorouridine metabolite formation in thymus at 6 mg/kg, po measured for 0.5 to 24 hrs by LC-MS/MS analysis. Type of data set: ADME, organism-based. As to conditions: in vivo, time 0.5-24 hrs.
A short description of data set [20]: Prodrug conversion in Sprague-Dawley rat assessed as 4'-Fluorouridine-NTP metabolite formation in lung at 6 mg/kg, po measured for 0.5 to 24 hrs by LC-MS/MS analysis. Type of data set: ADME, organism-based. As to conditions: in vivo, time 0.5-24 hrs.
Data set [21] in a line: Prodrug conversion in Sprague-Dawley rat assessed as 4'-Fluorouridine metabolite formation in brain at 6 mg/kg, po measured for 0.5 to 24 hrs by LC-MS/MS analysis. The format is ADME, organism-based. As to conditions: in vivo, time 0.5-24 hrs.
The nature of data set [22]: Toxicity in Sprague-Dawley rat assessed as drug tolerance administered as single dose. As to conditions: in vivo.
For data set [23], the system named is HepG2. The data set is described as follows: Mitochondrial toxicity in human HepG2 cells cultured in glucose containing medium at 100 uM. The format is cell-based. To be noted: hepg2, 100 µM.
Data set [24] has as its system HepG2. The data set is described as follows: Mitochondrial toxicity in human HepG2 cells cultured in galactose containing medium at 100 uM. The format is cell-based. To be noted: hepg2, 100 µM.

In the case of `CC(C)C(=O)OC[C@@]1(F)O[C@@H](n2ccc(=O)n(COC(=O)c3cccnc3)c2=O)[C@H](OC(=O)C(C)C)[C@@H]1OC(=O)C(C)C`, the Cmax in data set [1] came out at 2.39 µg/mL; in [13] it was 0.266 µg/mL; in data set [14] it was 0.119 µg/mL. In data set [2], this compound returned an AUC(0-t) of 15.1 µg·h/mL. Besides, the bioavailability in data set [3] is 75.2%. Moreover, in data set [4], the solubility was found to be 0.01 mg/mL (≈ 16.5 µM). For the same compound, the result in data set [5] was Active. Further, the Activity result in [6] was “Dose-dependent-effect”; in data set [7], “Dose-dependent-effect”; in data set [22], “Non-toxic”; in the data set with HepG2 [23] it was “Non-toxic”; in the data set on HepG2 [24], “Non-toxic”. In addition, the Stability result in data set [8] is “Unstable”. Moreover, the Drug metabolism entry in data set [9], in [10], in [11], in data set [12], in data set [19] and in data set [20] was “metabolite_detected” throughout. Moreover, the Drug metabolism entry in data set [21] is “metabolite_detected”. The AUCt in data set [15] is 4.084 µg·h/mL; in data set [16], 1.249 µg·h/mL. Also, the t1/2 in [17] turned out to be 12 h. In data set [18], the Vdss turned out to be 24.3 L/kg.

As usually defined, the Cmax is the highest concentration seen after dosing. A word on the AUC(0-t): it is the area under the concentration-time curve up to a stated or last time point. The term bioavailability denotes the share of a dose that reaches the circulation, judged against a reference dose that is usually intravenous. A word on the solubility: it is the concentration that dissolves in the medium under given conditions.
